The source of these data is PubChem BioAssay (NCI).

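Method: 48-hour compound exposure of cells in 96-well plates, five concentrations, linear interpolation of endpoints. At the GI50, growth is halved. TGI marks complete inhibition of growth.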

Some test systems named below: EKVX NSCLC; KM12 colon; COLO 205 colon; HCC-2998 colon; ACHN renal; NCI-H460 lung; NCI-H522 lung; K-562 leukemia; SN12C renal; UACC-62 melanoma.
Common to all, as to assay: DTP human tumour cell line panel, 48 h

Take `Cc1ccc(Sc2cc3c(oc2=O)-c2ccccc2OC3O)cc1` (stereo not given): the GI50 in the assay on EKVX NSCLC was 21.9 µM; in the assay on KM12 colon, 21.5 µM; in the assay on COLO 205 colon, 15 µM; in the assay with HCC-2998 colon, 20.3 µM; with ACHN renal, 24.8 µM; in the assay on NCI-H460 lung, 22.4 µM. Moreover, the GI50 in the assay with NCI-H522 lung is 18.1 µM; in the assay on K-562 leukemia it was 27.7 µM; in the assay with SN12C renal it was 29.4 µM; in the assay on UACC-62 melanoma it was 21.2 µM. Also, the TGI with EKVX NSCLC came to 43.9 µM; with KM12 colon, 49.7 µM; in the assay on COLO 205 colon, 36.5 µM; with HCC-2998 colon, 36.6 µM; in the assay with ACHN renal, 57.3 µM; with NCI-H460 lung it was 54.5 µM. The TGI in the assay on NCI-H522 lung was 38.8 µM; in the assay on K-562 leukemia, > 100 µM; with SN12C renal, 73.3 µM; with UACC-62 melanoma, 49.8 µM.
In the case of `O=C1CSc2cc([N+](=O)[O-])ccc2N1`, the TGI in the assay on EKVX NSCLC, in the assay on KM12 colon, in the assay with COLO 205 colon, with HCC-2998 colon, in the assay on ACHN renal and in the assay on NCI-H460 lung was > 100 µM in each case. The TGI in the assay with NCI-H522 lung, with K-562 leukemia, in the assay with SN12C renal and in the assay on UACC-62 melanoma was > 100 µM throughout.
For the molecule `CC(C)=CCCC(C)C1=C(O)C(=O)C(C)=CC1=O` (stereo not given), the TGI in the assay on EKVX NSCLC is > 49.8 µM; in the assay on KM12 colon it was 34.6 µM; in the assay with COLO 205 colon, 18.2 µM; in the assay on HCC-2998 colon it was 27.9 µM; in the assay with ACHN renal it was 3.98 µM; in the assay on NCI-H460 lung, > 100 µM. The TGI was 4.48 µM with NCI-H522 lung, 4.37 µM in the assay with K-562 leukemia, 34.6 µM in the assay with SN12C renal and 27.9 µM in the assay with UACC-62 melanoma.
For the molecule `Cc1c([N+](=O)[O-])oc2ccc3ccccc3c12`, the TGI in the assay on EKVX NSCLC, in the assay on KM12 colon, with COLO 205 colon, in the assay with HCC-2998 colon, in the assay with ACHN renal and in the assay on NCI-H460 lung was > 100 µM throughout. For the same molecule, the TGI with NCI-H522 lung is 41.9 µM; with K-562 leukemia it was > 100 µM; with SN12C renal, > 100 µM; in the assay with UACC-62 melanoma, > 100 µM.
As for `O=C(c1ccccc1)c1c(C(F)(F)F)n([O-])c2ccc(C(F)(F)F)cc2[n+]1=O`, the GI50 was 0.234 µM with EKVX NSCLC; 0.385 µM in the assay with KM12 colon; 0.384 µM with COLO 205 colon; 0.622 µM with HCC-2998 colon; 0.102 µM in the assay on ACHN renal; 0.232 µM in the assay on NCI-H460 lung. The GI50 with NCI-H522 lung was 0.306 µM; in the assay with K-562 leukemia, 0.319 µM; in the assay with SN12C renal, 0.215 µM; in the assay with UACC-62 melanoma, 0.665 µM. Also, the TGI amounted to 0.597 µM with EKVX NSCLC; 0.903 µM in the assay with KM12 colon; 0.879 µM with COLO 205 colon; 1.28 µM in the assay with HCC-2998 colon; 0.26 µM in the assay on ACHN renal; 0.587 µM with NCI-H460 lung. Moreover, the total growth inhibition concentration (TGI) with NCI-H522 lung is 0.971 µM; with K-562 leukemia it was 0.779 µM; in the assay with SN12C renal, 0.468 µM; in the assay on UACC-62 melanoma, 1.86 µM.
Regarding `Cn1cccc1/C=C/c1cc(Br)c(/C=C/c2cccn2C)cc1Br`, the TGI in the assay with EKVX NSCLC came out at 37.2 µM; with KM12 colon, 21.7 µM; with COLO 205 colon it was 55 µM; in the assay with HCC-2998 colon it was 16.6 µM; with ACHN renal it was 26.1 µM; in the assay with NCI-H460 lung, 45.9 µM. Further, the TGI with NCI-H522 lung was determined as 28.3 µM; in the assay on K-562 leukemia, 43.9 µM; in the assay with SN12C renal it was 72.4 µM; with UACC-62 melanoma it was 43.1 µM.
For `O=C(NC(=O)c1ccccc1[N+](=O)[O-])Nc1ccc(Oc2ncc(Cl)cn2)c(C(F)(F)F)c1`, the TGI is > 100 µM in the assay on EKVX NSCLC; 3.63 µM in the assay on KM12 colon; 0.109 µM in the assay with COLO 205 colon; 0.0775 µM with HCC-2998 colon; 32.1 µM in the assay on ACHN renal; > 20.7 µM with NCI-H460 lung. In addition, the TGI is 0.16 µM with NCI-H522 lung, > 100 µM in the assay on K-562 leukemia, 62.9 µM in the assay with SN12C renal and > 100 µM with UACC-62 melanoma.
Take `CCCCCCCCCCCCCCCC1=NC(C)(C)CN1C(C)C`: the GI50 in the assay on EKVX NSCLC is 1.74 µM; in the assay on KM12 colon, 1.33 µM; in the assay on COLO 205 colon, 1.5 µM; in the assay on HCC-2998 colon, 1.35 µM; in the assay with ACHN renal, 1.52 µM; in the assay with NCI-H460 lung, 1.73 µM. The GI50 was 1.55 µM in the assay with NCI-H522 lung, 0.448 µM with K-562 leukemia, 1.38 µM in the assay with SN12C renal and 1.67 µM with UACC-62 melanoma. Besides, the TGI in the assay with EKVX NSCLC was found to be 4.24 µM; in the assay on KM12 colon it was 2.6 µM; in the assay on COLO 205 colon it was 2.83 µM; with HCC-2998 colon, 2.64 µM; with ACHN renal it was 2.84 µM; in the assay with NCI-H460 lung it was 3.11 µM. For the same molecule, the TGI with NCI-H522 lung came out at 3.02 µM; in the assay on K-562 leukemia it was 1.72 µM; in the assay on SN12C renal it was 2.89 µM; with UACC-62 melanoma it was 3.14 µM.
Take `O=C(CCC(=O)C1CCC/C1=N/O)Nc1ccc(Cl)cc1` (stereo not given): the TGI in the assay with EKVX NSCLC, in the assay on KM12 colon, in the assay with COLO 205 colon, in the assay with HCC-2998 colon, in the assay with ACHN renal and in the assay with NCI-H460 lung was > 100 µM each time. The TGI in the assay with NCI-H522 lung, with K-562 leukemia, in the assay with SN12C renal and with UACC-62 melanoma was > 100 µM each time.
With `Cc1cc(I)cc(CN(C)CCCN2CCN(C)CC2)c1O`, the GI50 in the assay with EKVX NSCLC is 79.3 µM; in the assay on KM12 colon, 35.6 µM; with COLO 205 colon it was 19.3 µM; with HCC-2998 colon, 24.7 µM; with ACHN renal it was 81.6 µM; with NCI-H460 lung, 32.8 µM. Also, the GI50 in the assay with NCI-H522 lung was 46.4 µM; in the assay on K-562 leukemia it was 14.6 µM; with SN12C renal it was > 94.8 µM; with UACC-62 melanoma, 6.89 µM. The TGI was > 100 µM in the assay on EKVX NSCLC; > 100 µM in the assay on KM12 colon; 42 µM in the assay with COLO 205 colon; 56.8 µM with HCC-2998 colon; > 100 µM in the assay on ACHN renal; > 100 µM in the assay on NCI-H460 lung. For the same molecule, the TGI in the assay with NCI-H522 lung was 97.1 µM; in the assay on K-562 leukemia it was 40.1 µM; in the assay with SN12C renal, > 100 µM; in the assay with UACC-62 melanoma, 19.3 µM.
